Measurements published in US20180092360A1, “MICROBICIDAL COMPOSITION” (Dow Global Technologies LLC, priority 2015, published 2018).
Where two headings read alike, the source gives them in different places.

Tested on: bacterial pool of seven organisms
Experiment: Dow time-kill test in pH 7.4 hand dish-washing liquid, with Kull synergy index
Assay type: cell-based
Settings: for Concentration required to achieve >=4 Log bacterial counts reduction: bacterial pool, pH 7.4 hand dish-washing liquid, 37° C., active ingredient basis
Procedure: Four biocides and their combinations were tested at different concentration ranges. […] All biocide solutions were prepared and diluted in sterile DI water and used within 2 hours. These biocides are commercially available from The Dow Chemical Company. [table] A bacteria pool was used for testing. 24 hr bacterial cultures were obtained in TSB (Tryptic Soy Broth) media at 37° C. incubation for the seven organisms. The bacterial pool of seven organisms was prepared by taking equal parts of a 24 hour stationary phase aliquot from each bacterial culture and mixing them together. […] The time-kill tests were carried out to determine the threshold concentration of the biocide products in pH 7.4 hand dish-washing liquid. […] Biocides were then added into this bacterial suspension at various levels and mixed immediately. The mixed samples were then incubated at 37° C. At 24 hrs, viable bacteria remaining in the hand dish-washing samples were determined by 1:10 serial dilutions, transferring 20 ul aliquot of each sample into 180 ul TSB/Resazurin media. Triplicate tests were conducted. MPN method was used to determine the microbial concentration at after 24 hours incubation at 37° C. […] One measure of synergism is the industrially accepted method described by Kull, […]. and Mayer, R. L., in Applied Microbiology 9:538-541 (1961), using the ratio determined by the formula: Qa/QA+Qb/QB=Synergy Index (“SI”) wherein: • QA=concentration of compound A (first component) in ppm, acting alone, which produced an end point (MIC of Compound A). • Qa=concentration of compound A in ppm, in the mixture, which produced an end point. • QB=concentration of compound B (second component) in ppm, acting alone, which produced an end point (MIC of Compound B). • Qb=concentration of compound B in ppm, in the mixture, which produced an end point. When the sum of Qa/QA and Qb/QB is greater than one, antagonism is indicated. […] The lower the SI, the greater the synergy shown by that particular mixture. The minimum inhibitory concentration (MIC) of a microbicide is the lowest concentration tested under a specific set of conditions that prevents the growth of added microorganisms.

| Structure (SMILES) | Concentration required to achieve >=4 Log bacterial counts reduction (24 h) [ppm] | MIC (Bacterial Pool, 24 hours, BIT alone (QA) or BIT in mixture with SOPP (Qa), read-out: Minimum Inhibitory Concentration (ppm) BIT) [µg/mL] | MIC (24 h, read-out: Minimum Inhibitory Concentration (ppm) MIT) [µg/mL] | Minimum Inhibitory Concentration (ppm) SOPP (Bacterial Pool, 24 hours, SOPP alone (QB) or SOPP in mixture with BIT (Qb)) [ppm] | Minimum Inhibitory Concentration (ppm) SOPP (Bacterial Pool, 24 hours, SOPP alone (QB) or SOPP in mixture with CMIT/MIT (Qb)) [ppm] | Minimum Inhibitory Concentration (ppm) SOPP (Bacterial Pool, 24 hours, SOPP alone (QB) or SOPP in mixture with MIT (Qb)) [ppm] |
| --- | --- | --- | --- | --- | --- | --- |
| O=c1[nH]sc2ccccc12 [BIT, 1,2-benzisothiazol-3-one] | 400 | 400 | – | – | – | – |
| Cn1sccc1=O [MIT, 2-Methylisothiazol-3-one] | >95 | – | > 95 | – | – | – |
| [Na+].[O-]c1ccccc1-c1ccccc1 [SOPP, sodium orthophenylphenate] | 358.5 | – | – | 358.5 | 358.5 | 358.5 |
